Test results from article PMC9482650, “Quantitative fragmentomics allow affinity mapping of interactomes” (Nature Communications, 2022).
Ends that are not written are not given here. * marks the point of attachment. Biotin = O=C1N[C@H]2[C@H](CS[C@H]2CCCCC(=O)*)N1; ttds = NCCCOCCOCCOCCCNC(=O)CCC(=O)*

How the values were obtained:
[1] = system: SCRIB; experiment: PBM-AP-MS from Jurkat extract; format: binding, Homo sapiens; conditions: prey SCRIB, PBM peptide bait
Procedure: (§1) For PBM-AP-MS experiments, 30 μl streptavidin resin was mixed with biotin or peptide at 50–60 μM concentration in 6–6.5 resin volume for 60 min to achieve resin saturation. For PDZ-AP-MS experiments, 30 μl streptavidin resin was mixed with biotinylated MBP or MBP-PDZ at 40-50 μM concentration in >1000× resin volume for 60 min to achieve resin saturation. After saturation, resins were washed a single time (ten resin volume, holdup buffer), and were depleted with biotin (1 mM biotin, 5–10 resin volume, 10 min). Finally, resins were washed two times. 0.5 ml 2 mg/ml cell lysate was added to the dry resin (1 mg total input) and were incubated at 4 °C for 2 h. Then, the beads were washed three times with 10 resin volume buffer containing: 50 mM TRIS pH 8.5, 150 mM NaCl, 1% TritonX-100, 10× complete EDTA-free protease inhibitor cocktail, 2 mM EDTA, 1 mM TCEP. Then, the beads were washed two times with ten resin volume buffer containing: 50 mM TRIS pH 8.5, 150 mM NaCl, 1 mM TCEP. Finally, captured protein was eluted from the resin in two steps and the eluted fractions were pooled. For each elution the beads were incubated for 30 min with three resin volume buffer containing: 20 mM TRIS pH8.5, 100 mM NaCl, 500 μM TCEP, 8 M Urea. Between each step, the beads were separated by mild centrifugation and the supernatant was removed by gentle pipetting.
(§2) Proteins were identified by database searching using SequestHT (Thermo Fisher Scientific) with Proteome Discoverer 2.4 software (PD2.4, Thermo Fisher Scientific) on human FASTA database downloaded from SwissProt (reviewed, release 2020_11_27, 20304 entries, https://www.uniprot.org/). Precursor and fragment mass tolerances were set at 7 ppm and 0.6 Da respectively, and up to two missed cleavages were allowed. Oxidation (M, +15.995 Da) was set as variable modification, and Carbamidomethylation (C, +57.021 Da) as fixed modification. Peptides and proteins were filtered with a false discovery rate at 1%. Label-free quantification was based on the extracted ion chromatography intensity of the peptides. All samples were measured in technical triplicates. The measured extracted ion chromatogram (XIC) intensities were normalized based on median intensities of the entire dataset to correct minor loading differences. For statistical tests and enrichment calculations, not detectable intensity values were treated with an imputation method, where the missing values were replaced by random values similar to the 10% of the lowest intensity values present in the entire dataset. Unpaired two-tailed T-test, assuming equal variance, were performed on obtained log2 XIC intensities. The detection threshold for enriched proteins in AP-MS experiments were analyzed above twofold enrichment with <0.01 P value. Then, proteins with PDZ-domains or PBMs were extracted from the list of enriched proteins. In case only a specific isoform of the detected protein contains a PBM, the identified peptide fragments were manually checked to check which isoform(s) were most likely detected. All raw LC-MS/MS data (from 165 runs) have been deposited to the ProteomeXchange via the PRIDE database with identifier PXD027743.

[2] = system: LIN7C; experiment: PBM-AP-MS from Jurkat extract; format: binding, Homo sapiens; conditions: prey LIN7C, PBM peptide bait
Procedure: as §1, §2

[3] = system: MAGI1; experiment: PBM-AP-MS from Jurkat extract; format: binding, Homo sapiens; conditions: prey MAGI1, PBM peptide bait
Procedure: as §1, §2

[4] = system: HeLa cell extract preys; experiment: PBM-AP-MS, PBM peptide baits; format: binding, human
Procedure: HEK293T and HeLa cells were authenticated and found 100% identity to ATCC cat. CRL-3216 and ATCC cat. CCL-2, respectively. Jurkat and HaCat cell lines were not authenticated (original source: ECACC and Deutsches Krebsforschungszentrum DKFZ, respectively). HeLa cells were grown in DMEM (1 g/L glucose, Gibco) medium completed with 5% FCS and 40 μg/mL gentamicin, diluted every 3rd/4th day 1/10. HaCat cells were grown in DMEM (1 g/L glucose, Gibco) medium completed with 10% FCS and 40 μg/mL gentamicin, diluted every 3rd/4th day 1/4. Jurkat cells were grown in RPMI (Gibco) medium completed with 10% FCS and 40 μg/mL gentamicin, diluted every 3rd/4th day 1/12. All cells were kept at 37 °C and 5% CO2. For proteomics analyses cells were seeded on T-175 flasks. After they reached confluency, adherent cells were washed with PBS once and collected by scraping with ice-cold lysis buffer (Hepes-KOH pH 7.5 50 mM, NaCl 150 mM, Triton X-100 1%, complete EDTA-free protease inhibitor cocktail 1×, EDTA 2 mM, TCEP 5 mM, glycerol 10%). Jurkat cells were collected by 1000 g × centrifugation, washed once with PBS, then collected by 1000 g × 5 min centrifugation again and lysed in ice-cold lysis buffer. Lysates were sonicated 4 × 20 s with 1 s long pulses on ice, then incubated rotating at 4 °C for 30 min. Lysates were centrifuged at 12,000 rpm 4 °C for 20 min and supernatant was kept for further analysis. Concentration determination was carried out by standard Bradford method (Bio-Rad Protein Assay Dye Reagent #5000006) using BSA (MP BIomedicals #160069) as control on a Bio-Rad SmartSpec 3000 spectrophotometer instrument.
as §1
The samples were precipitated with TCA 20% overnight at 4 °C and centrifuged at 14,000 rpm for 10 min at 4 °C. The protein pellets were washed twice with 1 mL cold acetone and air dried. The protein extracts were solubilized in urea 8 M, reduced with 5 mM TCEP for 30 min, and alkylated with 10 mM iodoacetamide for 30 min in the dark. Double digestion was performed at 37 °C with 500 ng endoproteinase Lys-C for 4 h, followed by fourfold dilution and an overnight digestion with 500 ng trypsin. Peptide mixtures were then desalted on C18 spin-column and dried on Speed-Vacuum.
Samples were analyzed using an Ultimate 3000 nano-RSLC (Thermo Scientific, San Jose California) coupled in line with a LTQ-Orbitrap ELITE mass spectrometer via a nano-electrospray ionization source (Thermo Scientific, San Jose California). […]

| Substance | Enrichment values compared to biotin controls [1] | Enrichment values compared to biotin controls [2] | Enrichment values compared to biotin controls [3] | Enrichment values compared to biotin controls ([4]; prey AHNAK, PBM peptide bait) | Enrichment values compared to biotin controls ([4]; prey CASK, PBM peptide bait) | Enrichment values compared to biotin controls ([4]; prey DLG1, PBM peptide bait) | Enrichment values compared to biotin controls ([4]; prey DLG5, PBM peptide bait) | Enrichment values compared to biotin controls ([4]; prey DVL2, PBM peptide bait) | Enrichment values compared to biotin controls ([4]; prey HTRA1, PBM peptide bait) | Enrichment values compared to biotin controls ([4]; prey InaDl, PBM peptide bait) | Enrichment values compared to biotin controls ([4]; prey LAP2, PBM peptide bait) | Enrichment values compared to biotin controls ([4]; prey LIN7C, PBM peptide bait) | Enrichment values compared to biotin controls ([4]; prey LMO7, PBM peptide bait) | Enrichment values compared to biotin controls ([4]; prey MPDZ, PBM peptide bait) | Enrichment values compared to biotin controls ([4]; prey MPP5, PBM peptide bait) | Enrichment values compared to biotin controls ([4]; prey MPP7, PBM peptide bait) | Enrichment values compared to biotin controls ([4]; prey PDLIM5, PBM peptide bait) | Enrichment values compared to biotin controls ([4]; prey PDLIM7, PBM peptide bait) | Enrichment values compared to biotin controls ([4]; prey PSMD9, PBM peptide bait) | Enrichment values compared to biotin controls ([4]; prey SCRIB, PBM peptide bait) | also measured |
| --- | --- | --- | --- | --- | --- | --- | --- | --- | --- | --- | --- | --- | --- | --- | --- | --- | --- | --- | --- | --- | --- |
| HPV18E6 | 288.2 | 68.0 | 134.3 | 0.9 | 5.3 | 6.5 | 1.4 | 1.0 | 2.4 | 3.6 | 1.8 | 285.6 | 1.9 | 3.2 | 60.3 | 14.5 | 0.9 | 0.8 | 0.8 | 215.8 | Enrichment values compared to biotin controls ([4]; prey ARHGAP21, PBM peptide bait): 1.1; Enrichment values compared to biotin controls ([4]; prey ARHGEF12, PBM peptide bait): 1.0; Enrichment values compared to biotin controls ([4]; prey DLG3, PBM peptide bait): 5.8; Enrichment values compared to biotin controls ([4]; prey GOPC, PBM peptide bait): 2.8; Enrichment values compared to biotin controls ([4]; prey MPP6, PBM peptide bait): 3.7; Enrichment values compared to biotin controls ([4]; prey NHERF2, PBM peptide bait): 0.843; Enrichment values compared to biotin controls ([4]; prey NHERF3, PBM peptide bait): 0.8; Enrichment values compared to biotin controls ([4]; prey SIPA1L1, PBM peptide bait): 0.9; Enrichment values compared to biotin controls ([4]; prey SNTA1, PBM peptide bait): 1.2; Enrichment values compared to biotin controls ([4]; prey SNTB1, PBM peptide bait): 18.1; Enrichment values compared to biotin controls ([4]; prey SNTB2, PBM peptide bait): 76.9; Enrichment values compared to biotin controls ([4]; prey SNX27, PBM peptide bait): 12.8; Enrichment values compared to biotin controls ([4]; prey SYNJ2BP, PBM peptide bait): 49.1; Enrichment values compared to biotin controls ([4]; prey TJP1, PBM peptide bait): 1.7; Enrichment values compared to biotin controls ([4]; prey TX1B3, PBM peptide bait): 30.0 |
| HPV30E6 ({Biotin-ttds}-RHTTSTETAV) | 266.4 | 26.9 | 25.1 | 1.1 | 20.8 | 6.0 | 0.7 | 0.7 | 1.3 | 0.8 | 1.5 | 110.0 | 0.8 | 1.6 | 4.5 | 9.1 | 0.9 | 0.9 | 0.7 | 155.6 | Enrichment values compared to biotin controls ([4]; prey LNX2, PBM peptide bait): 1.0; Enrichment values compared to biotin controls ([4]; prey SDCBP, PBM peptide bait): 1.3; Enrichment values compared to biotin controls ([4]; prey SIPA1L1, PBM peptide bait): 0.5; Enrichment values compared to biotin controls ([4]; prey SNTB1, PBM peptide bait): 6.5; Enrichment values compared to biotin controls ([4]; prey SNTB2, PBM peptide bait): 1.1; Enrichment values compared to biotin controls ([4]; prey SNX27, PBM peptide bait): 1.4; Enrichment values compared to biotin controls ([4]; prey SYNJ2BP, PBM peptide bait): 15.4; Fold changes HeLa, SYNJ2BP ([4]; prey SYNJ2BP, PBM peptide bait): 15.4; Enrichment values compared to biotin controls ([4]; prey TJP1, PBM peptide bait): 0.7 |
